According to patent US20070293572A1, “Anti-Fatigue Composition” (priority 2004, published 2007):

Test system: Sprague-Dawley male rats
Test: Treadmill Test using Young Rat (1)
Format: in vivo
Settings: oral 100 mg/kg; for Extension of maximum running time (result in words): before vs three hours after administration; for Extension of maximum running time: maximum running time three hours after vs before administration, 7 to 10 week old rats, n=20
Procedure: Treadmill Test using Young Rat (1)
Using Sprague-Dawley malerats (7 to 10 week old, n=20) anti-fatigue effects brought about by reduced coenzyme Q10 alone (about 2% of oxidized coenzyme Q10 included), carnitine alone, and combination use of reduced coenzyme Q10 and carnitine were evaluated with a treadmill. In the test, rats were run at a speed of 10 m/min using a treadmill apparatus (model NK-73-4 made by Natume Seisakusho Co., Ltd.), and the speed was increased stepwise, by 5 m/min every 3 minutes, and the time when the rats became unable to run (maximum running time) was measured.
As a substance to be tested, a 0.5% sodium carboxymethylcellulose (CMC-Na) aqueous solution of reduced coenzyme Q10 (about 2% of oxidized coenzyme Q10 included) or carnitine (reduced coenzyme Q10 or carnitine/CMC-Na=10 mg/ml) was prepared and the solution was orally administered to rats at a dose of 100 mg/kg. Rats were divided into four groups of a solvent administered group, reduced coenzyme Q10 only administered group, a carnitine only administered group, and a reduced coenzyme Q10 and carnitine combined group. The maximum running time was measured before and three hours after the administration and the time extended from the maximum running time was calculated. A 0.5% CMC-Na aqueous solution was administered to the control group.

Row | Structure (SMILES) | Extension of maximum running time (result in words) | Extension of maximum running time
1 | COc1c(O)c(C)c(C/C=C(\C)CC/C=C(\C)CC/C=C(\C)CC/C=C(\C)CC/C=C(\C)CC/C=C(\C)CC/C=C(\C)CC/C=C(\C)CC/C=C(\C)CCC=C(C)C)c(O)c1OC [Reduced coenzyme Q10, reduced coenzyme Q10] | no extension of the maximum running time | −22 ± 71 S
2 | C[N+](C)(C)CC(O)CC(=O)[O-] (stereo not shown) [Carnitine, 4-trimethylamino-3-hydroxybutyric acid] | no extension of the maximum running time | −0 ± 151 S
